{
  "source": "ChEMBL document CHEMBL5579878",
  "about": "“Allosteric Activation of Protein Phosphatase 5 with Small Molecules” (J Med Chem, 2024)",
  "key": {"HCT-116 [1]": {"tested_on": "HCT-116", "experiment": "Downregulation of AT13387-induced HSP70 expression in human HCT-116 cells at 50 uM incubated for 24 hrs by Western blot analysis", "format": "functional, cell-based"}, "HCT-116 [2]": {"tested_on": "HCT-116", "experiment": "Downregulation of AT13387-induced HSP70 mRNA expression in human HCT-116 cells at 50 uM incubated for 24 hrs by qRT-PCR analysis", "format": "functional, cell-based"}, "HCT-116 [3]": {"tested_on": "HCT-116", "experiment": "Downregulation of AT13387-induced HSP70 expression in PP5 Knockout human HCT-116 cells at 50 uM incubated for 24 hrs by Western blot analysis", "format": "functional, cell-based"}, "HCT-116 [4]": {"tested_on": "HCT-116", "experiment": "Antitumor activity against human HCT-116 cells xenografted in BALB/c nude mouse assessed as decrease in AT13387-induced HSP70 protein expression in tumor at 30 to 60 mg/kg, ip administered every other day for 14 days by Western blot analysis", "format": "functional, organism-based", "settings": "dose 30-60 mg/kg, time 14.0 day"}, "HCT-116 [5]": {"tested_on": "HCT-116", "experiment": "Effect on HSP40 expression level in human HCT-116 cells at 1 to 100 uM incubated for 24 hrs by Western blot analysis", "format": "functional, cell-based", "settings": "dose 1-100 µM"}, "HCT-116 [6]": {"tested_on": "HCT-116", "experiment": "Enhancement of HSP90 inhibitor AT13387-induced antiproliferative activity against human HCT-116 cells assessed as HSP90 inhibitor AT13387 IC50 at 50 uM incubated for 72 hrs by CCK8 assay (reference value: 78.49 nM)", "format": "functional, cell-based", "settings": "HCT-116, 72 h"}, "HCT-116 [7]": {"tested_on": "HCT-116", "experiment": "Effect on HSP70 expression level in human HCT-116 cells at 1 to 100 uM incubated for 24 hrs by Western blot analysis", "format": "functional, cell-based", "settings": "dose 1-100 µM"}, "[8]": {"target": "T1, Serine/threonine-protein phosphatase 5 (Homo sapiens) (UniProt P53041)", "T1 sequence (whole entry)": "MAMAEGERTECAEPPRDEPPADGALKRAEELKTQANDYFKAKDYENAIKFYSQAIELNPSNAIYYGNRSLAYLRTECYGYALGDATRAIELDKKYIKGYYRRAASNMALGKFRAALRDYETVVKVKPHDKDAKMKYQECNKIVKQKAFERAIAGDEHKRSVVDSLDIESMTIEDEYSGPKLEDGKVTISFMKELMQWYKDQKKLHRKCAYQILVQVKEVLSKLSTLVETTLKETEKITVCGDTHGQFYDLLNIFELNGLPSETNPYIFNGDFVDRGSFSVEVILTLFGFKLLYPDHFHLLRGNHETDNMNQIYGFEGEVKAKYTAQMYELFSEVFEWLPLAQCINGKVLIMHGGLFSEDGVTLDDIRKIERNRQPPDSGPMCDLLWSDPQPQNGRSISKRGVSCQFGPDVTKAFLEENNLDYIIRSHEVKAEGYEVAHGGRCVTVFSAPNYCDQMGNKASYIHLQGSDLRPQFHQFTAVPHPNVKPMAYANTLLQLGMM", "experiment": "Activation of PP5 in human HCT-116 cells assessed as decrease in intracellular S13 residue phosphorylated CDC37 level incubated for 24 hrs by Western blot analysis", "format": "cell-based", "settings": "filed as activator, dose <= 100.0 µM"}, "[9]": {"target": "T1, Serine/threonine-protein phosphatase 5 (Homo sapiens)", "experiment": "Binding affinity to His-tagged human PP5 TPR domain extracted from Escherichia coli BL21 by ITC analysis"}, "SW-620 [10]": {"tested_on": "SW-620", "experiment": "Enhancement of HSP90 inhibitor AT13387-induced antiproliferative activity against human SW620 cells assessed as fold change in HSP90 inhibitor AT13387 IC50 at 50 uM incubated for 72 hrs by CCK8 assay", "format": "functional"}, "SW-620 [11]": {"tested_on": "SW-620", "experiment": "Antiproliferative activity against human SW620 cells assessed as inhibition of cell proliferation at 1 to 100 uM incubated for 72 hrs by CCK8 assay", "format": "functional, cell-based", "settings": "dose 1-100 µM"}, "[12]": {"target": "T2, Serine/threonine-protein phosphatase 5 (Homo sapiens, UniProt P53041)", "T2 sequence (P53041 whole entry)": "T1 sequence (whole entry)", "experiment": "Activation of His-tagged human PP5 extracted from Escherichia coli BL21 using pNPP as substrate assessed as increase in phosphatase activity incubated for 30 mins by spectrophotometric analysis"}, "[13]": {"experiment": "Toxicity in BALB/c nude mouse xenografted with human HCT-116 cells assessed as body weight loss at 30 to 60 mg/kg, ip administered every other day for 14 days in presence of AT13387", "format": "organism-based", "settings": "in vivo, 336 h, dose 30-60 mg/kg, time 14 day"}, "Homo sapiens": {"organism": "Homo sapiens", "experiment": "Inhibition of PP2A (unknown origin) using DiFMUP as substrate at 0.01 to 1000 uM", "settings": "dose 0.01-1000 µM"}, "[14]": {"experiment": "Half-life in Sprague-Dawley rat at 10 mg/kg, ip measured after 8 hrs by LC-MS/MS analysis", "format": "ADME, organism-based", "settings": "in vivo"}, "[15]": {"target": "T3, Tyrosine-protein phosphatase non-receptor type 2 (Homo sapiens) (UniProt P17706)", "T3 sequence (whole entry)": "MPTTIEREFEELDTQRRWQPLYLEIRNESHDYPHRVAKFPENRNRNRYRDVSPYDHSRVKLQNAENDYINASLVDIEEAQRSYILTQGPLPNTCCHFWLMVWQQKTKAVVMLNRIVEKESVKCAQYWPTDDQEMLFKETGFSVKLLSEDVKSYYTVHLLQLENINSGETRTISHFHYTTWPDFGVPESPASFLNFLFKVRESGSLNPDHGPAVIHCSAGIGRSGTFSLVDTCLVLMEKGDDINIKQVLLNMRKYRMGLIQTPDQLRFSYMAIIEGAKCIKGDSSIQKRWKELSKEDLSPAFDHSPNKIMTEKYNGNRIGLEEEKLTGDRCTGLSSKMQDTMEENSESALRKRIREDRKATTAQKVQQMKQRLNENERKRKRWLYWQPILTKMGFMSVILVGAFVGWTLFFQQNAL", "experiment": "Inhibition of PTPN2 (unknown origin) using DiFMUP as substrate at 0.01 to 1000 uM", "settings": "dose 0.01-1000 µM"}, "HCT-116 [16]": {"tested_on": "HCT-116", "experiment": "Downregulation of AT13387-induced HSP40 expression in PP5 Knockout human HCT-116 cells at 50 uM incubated for 24 hrs by Western blot analysis", "format": "functional, cell-based"}, "HCT-116 [17]": {"tested_on": "HCT-116", "experiment": "Downregulation of AT13387-induced HSP27 mRNA expression in human HCT-116 cells at 50 uM incubated for 24 hrs by qRT-PCR analysis", "format": "functional, cell-based"}},
  "note": "pEC50, pIC50: −log10 of the molar value. Active and inactive are the calls of the source. The rule behind the calls is not given here.",
  "data": [
    {"smiles": "N=c1oc2cc(F)cc(F)c2cc1C(N)=S", "values": [
      {"measurement": "Activity", "setting": "HCT-116 [1]", "value": "Active"},
      {"measurement": "Activity", "setting": "HCT-116 [2]", "value": "Active"},
      {"measurement": "Activity", "setting": "HCT-116 [3]", "value": "inactive"},
      {"measurement": "Activity", "setting": "HCT-116 [4]", "value": "Active"},
      {"measurement": "Activity", "setting": "HCT-116 [5]", "value": "inactive"},
      {"measurement": "pIC50", "setting": "HCT-116 [6]", "value": 7.39},
      {"measurement": "Activity", "setting": "HCT-116 [7]", "value": "inactive"},
      {"measurement": "Activity", "setting": "[8]", "value": "Dose-Dependent Effect"},
      {"measurement": "Activity", "setting": "[9]", "value": "inactive"},
      {"measurement": "fold change (FC)", "setting": "SW-620 [10]", "value": 2},
      {"measurement": "Activity", "setting": "SW-620 [11]", "value": "inactive"},
      {"measurement": "pEC50", "setting": "[12]", "value": 4.28},
      {"measurement": "Activity", "setting": "[13]", "value": "Non-Toxic"},
      {"measurement": "inhibition", "setting": "Homo sapiens", "value": "inactive"},
      {"measurement": "half-life", "setting": "[14]", "value": 95.4, "unit": "min"},
      {"measurement": "inhibition", "setting": "[15]", "value": "inactive"},
      {"measurement": "Activity", "setting": "HCT-116 [16]", "value": "inactive"},
      {"measurement": "Activity", "setting": "HCT-116 [17]", "value": "Active"}
    ]}
  ]
}
